# In patent US8535650B2, “Stabilized reverse micelle compositions and uses thereof” (Soligenix, Inc., priority 2001, dated 2013):
# Key:
# [1] = in vivo; details: Sprague-Dawley, rat, sc, 0.4 mg/kg
# Description: Sprague-Dawley rats (approximately weighing 120 grams each) were catheterized surgically with jugular and duodenal catheters. Each group of rats, 3-5 animals per group, were given 0.4-2.4 mg/kg of LHRH either as free in solution or incorporated in micelles. As further control, several groups of animals were given a solution of free LHRH subcutaneously at a dose of 0.4 mg/kg of body weight. Blood samples were collected at 0, 20, 40, 60, 90, 120, and 240 minutes following administration of LHRH or controls. The time 0 blood collection was obtained approximately 15 minutes before administration of LHRH formulations. Plasma samples were analyzed by a competitive ELISA assay as follows. Plastic 96 well plates were coated with anti-rabbit immunoglobulins followed by addition of rabbit anti-LHRH and biotinylated-LHRH with sample dilutions. Binding of biotinylated LHRH was assayed by development with BRP-avidin and color development with TMB (tetra-methyl-benzidine). Pharmacokinetic parameters were calculated from the data using WinNonLin software (Pharsight).
# [2] = in vivo; details: Sprague-Dawley, rat
# Description: Sprague-Dawley rats (approximately weighing 120 grams each) were catheterized surgically with jugular and duodenal catheters. Each group of rats, 4-5 animals per group, were given 0.4-3.6 mg/kg of leuprolide either as free in solution or incorporated in micelles. As further control, several groups of animals were given a solution of free leuprolide subcutaneously. Blood samples were collected at 0, 20, 40, 60, 90, 120, and 240 minutes following administration of leuprolide or controls. The time 0 blood collection was obtained approximately 15 minutes before administration of leuprolide formulations. The amount of leuprolide released into rat serum or leuprolide in formulation was determined by using competitive enzyme-linked immunosorbent assay (ELISA) (Peninsula Laboratories, Inc). The assay system utilizes goat anti-rabbit IgG for solid phase (microwells) immobilization. The test serum or formulation sample was allowed to react simultaneously with the coated antibody, rabbit anti-leuprolide and biotinylated leuprolide. The biotinylated leuprolide competes for the antibody binding sites with standard or the unknown sample leuprolide. After a two-hour (or overnight) incubation at room temperature, unbound biotinylated peptide was removed by washing, and streptavidin-conjugated horseradish peroxidase (SA-HRP) was added and allowed to bind the immobilized rabbit anti-leuprolide/biotinylated leuprolide complex. After washing away excess SA-HRP, 3,3′,5,5′-Tetramethylbenzidine (TMB) was added and incubated for 15 minutes, resulting in the development of a blue color. The addition of Stop Solution stops the reaction and converts the color to yellow. The intensity of the yellow color depends on the quantity of biotinylated leuprolide bound to the immobilized antibody: When more sample leuprolide competes for the limited antibody, less biotinylated leuprolide/SA-HRP can be immobilized, and less color is produced by the substrate.
# [3] = in vivo; details: both, beagle, dog, sc, 0.4 mg/kg
# Description: Beagle dogs (3 female and 3 male weighing 8-10 kg each) were catheterized surgically with duodenal catheters. For each treatment, the dogs were given 0.4-2.4 mg/kg of leuprolide either in solution or incorporated in micelles. The treatments were administered via the duodenal catheter. For the positive control, the dogs were given a solution of free leuprolide by subcutaneous injection. Blood samples were collected from cephalic catheters or the jugular vein at 0, 15, 30, 45, 60, 90, 120, 240, 360, 480, and 1440 minutes following administration of leuprolide or controls. […] The time 0 blood collection was obtained approximately 10 minutes before administration of leuprolide formulations. The amount of leuprolide released into dog serum was determined by using a competitive enzyme-linked immunosorbent assay (ELISA) from Peninsula Laboratories, Inc. which utilizes goat anti-rabbit IgG for solid phase (microwell) immobilization. The test serum was allowed to react simultaneously with the coated antibody, rabbit anti-leuprolide and biotinylated leuprolide. After two-hour incubation at room temperature, unbound biotinylated peptide was removed by washing, and streptavidin-conjugated horseradish peroxidase (SA-HRP) was added and allowed to bind the immobilized rabbit anti-leuprolide/biotinylated leuprolide complex. After washing away excess SA-HRP, 3,3′5,5′-Tetramethylbenzidine dihydrochloride (B) was added and incubated for 15 minutes, resulting in the development of a blue color. The addition of stop solution stops the reaction and converts the color to yellow. Leuprolide in the samples was quantified by non-linear regression analysis of the standard curve and sample optical density values. Pharmacokinetic parameters are calculated using a pharmacokinetic software with a noncompartmental model.
# [4] = Bioavailability of hGH following intraduodenal administration in rats (plasma hGH by ELISA); assay type: in vivo, Sprague-Dawley rats; details: 600 micrograms hGH, FIG. 1
# Description: Each group of rats, 3-5 animals per group, received 600 micrograms of human growth hormone in Acconon CC-12 reverse micelle formulation or control formulations consisting of aqueous growth hormone or Acconon CC-12 water reverse micelle. Blood samples were obtained from the jugular catheter at the indicated times after administration. Plasma samples were obtained from the collected blood specimens and analyzed for the presence of hGH by an enzyme-linked immunosorbent assay (ELISA) (Alexon-Trend, BioCheck). The assay system utilizes polyclonal sheep anti-hGH for solid phase (microwells) immobilization, and mouse monoclonal anti-hGH in the antibody-enzyme (horseradish peroxidase) conjugate solution. […] After a 45-minute incubation at room temperature, the sample well was washed to remove unbound enzyme labeled antibody. […] The intensity of the yellow color is directly proportional to the concentration of hGH in the sample.
compound,measurement,setting,value
CC(C)C[C@H](NC(=O)CNC(=O)[C@H](Cc1ccc(O)cc1)NC(=O)[C@H](CO)NC(=O)[C@H](Cc1c[nH]c2ccccc12)NC(=O)[C@H](Cc1cnc[nH]1)NC(=O)[C@@H]1CCC(=O)N1)C(=O)N[C@@H](CCCNC(=N)N)C(=O)N1CCC[C@H]1C(=O)NCC(N)=O [LHRH solution],AUC(0-inf),[1],31.5 ng·h/mL
same,Cmax,[1],79 ± 51.2 ng/mL
same,bioavailability,[1],100%
"CCNC(=O)[C@@H]1CCCN1C(=O)[C@H](CCCNC(=N)N)NC(=O)[C@H](CC(C)C)NC(=O)[C@@H](CC(C)C)NC(=O)[C@H](Cc1ccc(O)cc1)NC(=O)[C@H](CO)NC(=O)[C@H](Cc1c[nH]c2ccccc12)NC(=O)[C@H](Cc1c[nH]cn1)NC(=O)[C@@H]1CCC(=O)N1 [Leuprolide solution, p-Glu-His-Trp-Ser-Tyr-D-Leu-Leu-Arg-Pro-NHC2H5]",bioavailability,[2],~0.2%
same,AUC(0-inf),[2]; 2.4 mg/kg,5.43 ng·h/mL
same,Cmax,[2]; 2.4 mg/kg,6.3 ± 5.3 ng/mL
same,bioavailability,[2]; 2.4 mg/kg,0.23 ± 0.12%
same,AUC(0-inf),"[2]; sc, 0.4 mg/kg",397 ng·h/mL
same,Cmax,"[2]; sc, 0.4 mg/kg",453 ± 94 ng/mL
same,bioavailability,"[2]; sc, 0.4 mg/kg",100%
same,AUC(0-inf),[3],905 ng·h/mL
same,Cmax,[3],412 ± 163 ng/mL
same,bioavailability,[3],100%
"aqueous growth hormone: purified human growth hormone dissolved in water, control formulation",absorption of hGH,[4],little to no absorption
